Experimental data: patent publication US20100160342A1, “Compositions of Topical Ocular Solutions to Deliver Effective Concentrations of Active Agent to the Posterior Segment of the Eye” (ALCON RESEARCH, LTD., priority 2008, published 2010)

Assays:
[1] = Description: Another preferred criterion for improving the bioavailability of the active agent is establishing a pH range for the composition which provides the highest solubility. It will be apparent to the skilled artisan that the pH of the composition will depend upon the concentration and the salt form of the active agent in the composition.
[2] = Ocular comfort / stinging upon topical administration to the eye
Description: It is well known that acidic solutions alone cause ocular stinging.

[3] = in vivo

solubility versus theoretical solubility predicted by the Handerson-Hasselbach relationship [1]	ocular stinging / comfort ([2]; ophthalmic solution administered topically to the eye)	aqueous humor (AqH) drug level, 0.5% HPMC versus 0% HPMC [3]	retina drug level, 0.5% HPMC versus 0% HPMC [3]	ocular stinging / comfort ([2]; in vivo)	Compound	solubility compared with the free base [1]
does not exhibit this solubility dip	more comfortable	~3 fold	0.5% HPMC ˜0% HPMC		O=C1[C@@H]2[C@H]3CC[C@H](C3)[C@@H]2C(=O)N1CCCCN1CCN(c2ncccn2)CC1 [Tandospirone, tandospirone]	
decreased substantially				stings	tandospirone citrate [tandospirone citrate salt]	dramatically less than that of the free base
